Test results published in PMC11969009 (Nature Communications, 2025).
“And” between values parts separate entries of the source, which are not always exact repeats. Equal values may be shown once. Read-outs that look alike come from different tables or passages of the source.

Columns and labels:
HKU1 PLpro = HKU1 PLpro (Human coronavirus HKU1, UniProt P0C6X2); assay: biochemical; format: biochemical; parameters: inhibition of HKU1 PLpro, UbRh dose-response replicate value: unit: %
SARS-CoV-2 PLpro [1] = target: T1, SARS-CoV-2 PLpro (Severe acute respiratory syndrome coronavirus 2, UniProt P0DTD1); assay: biochemical; format: binding
SARS-CoV-2 PLpro [2] = target: T1, SARS-CoV-2 PLpro; assay: biochemical; parameters: inhibition of SARS-CoV-2 PLpro, UbRh dose-response replicate value: unit: %
[3] = tested on: SARS-CoV-2 clinical isolate VIC001; assay: microbe, parasite or virus in culture; format: cell-based
229E PL2pro = 229E PL2pro (Human coronavirus 229E, UniProt P0C6X1); assay: biochemical; parameters: inhibition of 229E PL2pro, UbRh dose-response replicate value: unit: %

## CO/N=C(/c1ccc2cc(OC)ccc2c1)[C@@H]1CCCN([C@H]2CC[C@@H](O)CC2)C1 [WEHI-P4]
HKU1 PLpro
  inhibition of HKU1 PLpro, UbRh dose-response replicate value: 1.705 and -0.1054 and 2.2991 and 4.234 and 8.121 and -2.271 and 3.812 and 1.385 and 5.008 and 9.904 and 4.3232 and 13.1694 and 12.2718 and 4.484 and 1.663 and 12.2999 and 8.634 and 4.883 and 1.702 and 14.2701
HKU1 PLpro; Conc 0.00498 µM
  inhibition of HKU1 PLpro, UbRh dose-response replicate value: 10.7444 and 9.596 and 9.063
HKU1 PLpro; Conc 0.00498 µM, read-out: inhibition of HKU1 PLpro, UbRh dose-response replicate value
  inhibition at 0.00498 µM: 6.7%
HKU1 PLpro; Conc 0.0149 µM
  inhibition of HKU1 PLpro, UbRh dose-response replicate value: 6.961 and -0.5687 and 9.316 and 1.404
HKU1 PLpro; Conc 0.0448 µM
  inhibition of HKU1 PLpro, UbRh dose-response replicate value: 2.999 and 18.114 and 6.887 and 6.926
HKU1 PLpro; Conc 3.63 µM
  inhibition of HKU1 PLpro, UbRh dose-response replicate value: -1.799 and 2.922 and 4.67 and 5.455
HKU1 PLpro; Conc 98 µM
  inhibition of HKU1 PLpro, UbRh dose-response replicate value: -6.574 and 1.985 and 4.593 and -1.2047
SARS-CoV-2 PLpro [1]
  Kd: 18 nM
  Response (RU), report points: 23.5521 RU and 19.8909 RU and 21.8514 RU and 23.0991 RU and 23.6093 RU and 23.8360 RU
SARS-CoV-2 PLpro [2]; Conc 0.000249 µM
  inhibition of SARS-CoV-2 PLpro, UbRh dose-response replicate value: -6.989 and -6.2311 and -15.3901 and -12.0234 and -3.121 and 2.182 and 11.6978 and 1.819
SARS-CoV-2 PLpro [2]; Conc 0.000745 µM
  inhibition of SARS-CoV-2 PLpro, UbRh dose-response replicate value: -5.473 and -5.949 and -17.0454 and -10.682
SARS-CoV-2 PLpro [2]; Conc 0.000747 µM
  inhibition of SARS-CoV-2 PLpro, UbRh dose-response replicate value: 12.1399 and 17.4092 and 12.0617
SARS-CoV-2 PLpro [2]; Conc 0.000747 µM, read-out: inhibition of SARS-CoV-2 PLpro, UbRh dose-response replicate value
  inhibition at 0.000747 µM: 8.73%
SARS-CoV-2 PLpro [2]; Conc 0.00498 µM
  inhibition of SARS-CoV-2 PLpro, UbRh dose-response replicate value: -1.775 and 0.6518 and -0.6615 and -14.6544
SARS-CoV-2 PLpro [2]; Conc 0.00675 µM
  inhibition of SARS-CoV-2 PLpro, UbRh dose-response replicate value: 22.4234 and 17.1978 and 22.0771
SARS-CoV-2 PLpro [2]; Conc 0.00675 µM, read-out: inhibition of SARS-CoV-2 PLpro, UbRh dose-response replicate value
  inhibition at 0.00675 µM: 23.8%
SARS-CoV-2 PLpro [2]; Conc 0.0149 µM
  inhibition of SARS-CoV-2 PLpro, UbRh dose-response replicate value: 22.1269 and 15.6043 and 12.3348
SARS-CoV-2 PLpro [2]; Conc 0.0149 µM, read-out: inhibition of SARS-CoV-2 PLpro, UbRh dose-response replicate value
  inhibition at 0.0149 µM: 20.2%
SARS-CoV-2 PLpro [2]; Conc 0.0448 µM
  inhibition of SARS-CoV-2 PLpro, UbRh dose-response replicate value: 70.4961 and 67.8098 and 82.9795
SARS-CoV-2 PLpro [2]; Conc 0.0448 µM, read-out: inhibition of SARS-CoV-2 PLpro, UbRh dose-response replicate value
  inhibition at 0.0448 µM: 69.6%
SARS-CoV-2 PLpro [2]; Conc 0.545 µM
  inhibition of SARS-CoV-2 PLpro, UbRh dose-response replicate value: 96.1218 and 96.9708 and 96.4204 and 99.1563 and 99.6768 and 97.5259 and 100.026
SARS-CoV-2 PLpro [2]; Conc 0.545 µM, read-out: inhibition of SARS-CoV-2 PLpro, UbRh dose-response replicate value
  inhibition at 0.545 µM: 94.8%
SARS-CoV-2 PLpro [2]; Conc 1.63 µM
  inhibition of SARS-CoV-2 PLpro, UbRh dose-response replicate value: 99.7919 and 99.9266 and 100.674
SARS-CoV-2 PLpro [2]; Conc 1.63 µM, read-out: inhibition of SARS-CoV-2 PLpro, UbRh dose-response replicate value
  inhibition at 1.63 µM: 99.9%
SARS-CoV-2 PLpro [2]; Conc 1.64 µM
  inhibition of SARS-CoV-2 PLpro, UbRh dose-response replicate value: 100.528 and 98.3984 and 97.5602
SARS-CoV-2 PLpro [2]; Conc 1.64 µM, read-out: inhibition of SARS-CoV-2 PLpro, UbRh dose-response replicate value
  inhibition at 1.64 µM: 101%
SARS-CoV-2 PLpro [2]; Conc 3.63 µM
  inhibition of SARS-CoV-2 PLpro, UbRh dose-response replicate value: 107.19 and 107.537 and 118.551
SARS-CoV-2 PLpro [2]; Conc 3.63 µM, read-out: inhibition of SARS-CoV-2 PLpro, UbRh dose-response replicate value
  inhibition at 3.63 µM: 108%
SARS-CoV-2 PLpro [2]; Conc 4.9 µM
  inhibition of SARS-CoV-2 PLpro, UbRh dose-response replicate value: 99.5845 and 98.2639 and 99.0831 and 98.0118 and 99.4255 and 97.4945 and 99.077
SARS-CoV-2 PLpro [2]; Conc 4.9 µM, read-out: inhibition of SARS-CoV-2 PLpro, UbRh dose-response replicate value
  inhibition at 4.9 µM: 99.1%
SARS-CoV-2 PLpro [2]; Conc 98 µM
  inhibition of SARS-CoV-2 PLpro, UbRh dose-response replicate value: 106.984 and 107.551 and 120.253
SARS-CoV-2 PLpro [2]; Conc 98 µM, read-out: inhibition of SARS-CoV-2 PLpro, UbRh dose-response replicate value
  inhibition at 98 µM: 107%
SARS-CoV-2 PLpro [2]; IC50 (UbRh) SARS-CoV-2 PLpro, Supplementary Fig. 2b
  IC50: 32 nM
SARS-CoV-2 PLpro [2]; read-out: inhibition of SARS-CoV-2 PLpro, UbRh dose-response replicate value
  inhibition at […]: 93.6% and 81.4% and 107% (2×) and 108% and 105% and 99.2% and 92.6%
[3]; Severe acute respiratory syndrome coronavirus 2, Vero, read-out: Antiviral EC50 (plaque assay)
  EC50: 400 nM
[3]; Severe acute respiratory syndrome coronavirus 2, Vero, read-out: Antiviral EC50 (plaque assay) with Pgp inhibitor
  EC50: 306 nM
[3]; read-out: Antiviral EC50 (plaque assay)
  EC50: 410 nM
229E PL2pro
  inhibition of 229E PL2pro, UbRh dose-response replicate value: -3.299 and -1.103 and -1.357 and -1.684 and -5 and -3.221 and 0.1898 and -0.4439 and 15.3408 and -2.102 and -1.619 and -0.7174 and -1.603 and -0.8771 and -3.61 and -1.122 and -1.443 and -0.5265 and -4.511 and -0.9697
229E PL2pro; Conc 0.00498 µM
  inhibition of 229E PL2pro, UbRh dose-response replicate value: -2.024 and 3.205 and 24.2526 and 1.229
229E PL2pro; Conc 0.0149 µM
  inhibition of 229E PL2pro, UbRh dose-response replicate value: -0.08917 and 0.9383 and 15.3791 and -0.8809
229E PL2pro; Conc 0.0448 µM
  inhibition of 229E PL2pro, UbRh dose-response replicate value: -0.8342 and -1.338 and 5.491 and -0.5647
229E PL2pro; Conc 3.63 µM
  inhibition of 229E PL2pro, UbRh dose-response replicate value: -3.66 and -1.559 and -7.103 and -2.2201
